Measurements as given in patent US8349553B2, “Jasmonate based assays for identifying compounds that selectively inhibit mitochondrial bound hexokinases” (Ramot at Tel Aviv University Ltd., priority 2007, dated 2013).

Assays:
[1] = target: T1, hexokinase-I-Voltage dependent anion channel interactions (Rattus norvegicus, UniProt P05708); assay: Voltage-dependent anion channel recording in planar lipid bilayer after addition of hexokinase-I; assay type: biochemical; conditions: 3 mM, HK-I 20 mU/ml, recorded after 10 minutes
T1 construct: from tissue; host or cells: HK-I from rat brain mitochondria; VDAC from rat liver mitochondria
T1 sequence (P05708 whole entry): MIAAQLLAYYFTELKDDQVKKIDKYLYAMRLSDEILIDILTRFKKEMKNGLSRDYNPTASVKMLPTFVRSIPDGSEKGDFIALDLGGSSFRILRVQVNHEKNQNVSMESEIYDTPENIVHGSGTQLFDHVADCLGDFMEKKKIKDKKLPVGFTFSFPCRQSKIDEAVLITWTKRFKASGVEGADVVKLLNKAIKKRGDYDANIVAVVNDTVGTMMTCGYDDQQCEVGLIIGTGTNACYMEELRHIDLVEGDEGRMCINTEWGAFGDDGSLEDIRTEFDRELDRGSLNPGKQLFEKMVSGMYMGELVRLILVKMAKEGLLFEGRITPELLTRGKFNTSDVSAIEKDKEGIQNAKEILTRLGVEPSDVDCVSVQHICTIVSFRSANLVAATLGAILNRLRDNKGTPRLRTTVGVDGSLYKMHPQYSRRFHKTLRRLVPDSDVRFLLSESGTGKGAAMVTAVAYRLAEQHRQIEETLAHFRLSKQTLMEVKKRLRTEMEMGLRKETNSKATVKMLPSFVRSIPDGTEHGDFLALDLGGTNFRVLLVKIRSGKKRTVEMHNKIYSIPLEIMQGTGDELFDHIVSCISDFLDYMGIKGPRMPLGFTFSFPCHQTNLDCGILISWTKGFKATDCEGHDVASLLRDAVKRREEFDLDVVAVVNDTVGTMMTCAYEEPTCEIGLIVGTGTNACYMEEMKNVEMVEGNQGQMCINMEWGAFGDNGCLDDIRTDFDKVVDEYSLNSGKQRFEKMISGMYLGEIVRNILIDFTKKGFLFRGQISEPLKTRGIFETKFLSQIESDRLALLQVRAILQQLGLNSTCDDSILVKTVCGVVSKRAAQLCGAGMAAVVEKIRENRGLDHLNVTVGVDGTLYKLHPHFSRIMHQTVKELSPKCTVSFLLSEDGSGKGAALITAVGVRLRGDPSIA
Experimental: Currents were measured with respect to the trans side of the membrane (ground).

[2] = test system: mitochondrial fraction isolated from CT-26 tumors; assay: Cytochrome c release from mitochondrial fraction; assay type: biochemical, murine; conditions: 3 mM
Experimental: Freshly isolated mitochondrial fraction, at a final concentration of 2 mg/ml in a volume of 100 μL, was incubated at 37° C. with the examined agent, e.g. methyl jasmonate, in a KCl-based respiratory buffer (150 mM KCl, 25 mM NaHCO3, 1 mM MgCl2, 3 mM KH2PO4, 20 mM Hepes, pH 7.4; Pastorino, 2002). Potassium succinate (5 mM) was added as respiratory substrate (Azoulay-Zohar, 2004). For the determination of cytochrome c release, mitochondrial fraction was pelleted at 20,000×g for 10 minutes at 4° C. Pellets were incubated for 40 minutes with lysis buffer (Tris HCl, pH 8, 20 mM, NaCl 137 mM, EDTA 2 mM, pH 8, 1% Triton-X-100, Protease Inhibitors cocktail: Sigma) on ice (Fingrut, 2005). Pellet lysates and supernatants were separated on 12% SDS-PAGE gels and electroblotted onto nitrocellulose membranes. Cytochrome c was detected by specific antibody (1:1000, BD PharMingen, San Diego, Calif.). Antigen-antibody complexes were stained with horseradish peroxidase-conjugated antibody (1:10,000, Santa Cruz Biotechnology, CA) and enhanced chemiluminescence (ECL) reagent (EZ-ECL, Biological Industries, Beit Haemek, Israel), and exposed to ECL film (Eastman Kodak, Rochester, N.Y., U.S.A.). Cytochrome c release from mitochondrial fraction isolated from CT-26 tumors occurred within the same time frame (15-60 minutes) required to detach hexokinase from mitochondria (FIG. 3). […]

[3] = test system: mitochondria-bound hexokinase (mitochondrial fraction of B16 melanoma tumors); assay: Hexokinase detachment assay, mitochondrial fraction of B16 melanoma tumors; assay type: biochemical, murine; conditions: B16 tumor mitochondrial fraction; 30 minutes at 37° C.
Experimental: Mitochondrial fraction was prepared by mechanical lysis and differential centrifugation. All stages were performed on ice. Cells or extracted tissues were washed with PBS and disrupted by homogenization in extraction buffer (Sucrose 250 mM, HEPES-NaOH 10 mM, pH 7.2) freshly supplemented with 0.1 mM EDTA and Protease Inhibitors cocktail (Sigma). For each gram of cells or tissue, 4 volumes of extraction buffer were applied. The homogenate volume was doubled with the extraction buffer, and tissue and cell debris as well as nuclei were pelleted by centrifugation of 1,000 g for 10 minutes. The supernatant was further spun at 13,000 g for 10 minutes twice. Endoplasmic reticulum layer was removed. The pellet, designated as the mitochondrial fraction, was suspended in the appropriate buffer, depending on the assay for which the mitochondrial fraction was prepared. Mitochondrial fractions were used immediately or stored at −196° C. […] Activity of hexokinase in the supernatant (i.e., activity of the detached hexokinase) was determined spectrophotometrically at 340 nm. […] Mitochondrial fractions isolated from different cancer cells, namely Molt-4 cells, BCL-1 leukemic cells and B16 melanoma tumors were incubated for 30 minutes at 37° C., and the activity of unbound hexokinase was measured and compared to the activity of spontaneously (control) detached hexokinase. […]

SMILES: CC/C=C\CC1C(=O)CCC1CC(=O)OC (centres unmarked) [methyl jasmonate]
- effect on HK-I-induced low-conducting state of voltage-dependent anion channel ([1]; −20 mV): reversed by the addition of methyl jasmonate
- effect on HK-I-closed voltage-dependent anion channel ([1]; −40 mV): led to re-opening of HK-I-closed channels
- time frame of cytochrome c release ([2]; CT-26 tumor mitochondrial fraction): 15 to 60 min
- release of cytochrome c from isolated mitochondrial fraction ([2]; CT-26 tumor, 37° C.): caused time-dependent release of cytochrome c
- detachment of hexokinase (activity of unbound hexokinase compared to control) [3]: detached hexokinase from mitochondrial fraction isolated from the three different cancer cells
